Experimental data published in paper PMC12042267, “Expanding the Family of Monosubstituted 15-Membered Pyridine-Based Macrocyclic Ligands for Mn(II) Complexation in the Context of MRI” (Inorganic Chemistry, 2025).

Columns and labels:
[1] = 1H relaxivity (relaxometry, NMRD profiles); assay type: physicochemical; conditions: for r1 (relaxivity): 20 MHz, 0.47 T
Description: At 60 MHz, ^1H longitudinal (T1) and transverse (T2) relaxation times were measured with a Bruker Minispec MQ-60 NMR analyzer. The temperature was set to 25.0 °C and controlled with a circulating water bath. T1 and T2 values were determined, respectively, by using the inversion recovery method (180−τ–90°) and the Carl–Purcell–Meiboom–Gill (CPMG) spin–echo pulse sequence. […]
(§1) ^1H NMRD profiles on aqueous solutions of MnL2 (cMn2+ = 0.98 mM; pH = 7.22) and MnL3 (cMn2+ = 0.96 mM; pH = 7.20) were recorded at 25 and 37 °C on a SMARTracer Fast Field Cycling NMR relaxometer (Stelar; 0.00024–0.24 T, 0.01–10 MHz ^1H Larmor frequency) and a WP80 NMR electromagnet adapted to variable-field measurements (Bruker; 0.47–1.88 T, 20–80 MHz ^1H Larmor frequency). The temperature was maintained by a gas flow and monitored by a VTC91 temperature control unit based on previous calibration with a Pt resistance temperature probe.

[2] = Simultaneous analysis of 17O NMR and 1H NMRD data (Solomon-Bloembergen-Morgan); assay type: physicochemical
Description: as §1
Variable-temperature ^17O NMR measurements of aqueous solutions of MnL2 (cMnL = 3.70 mmol·kg^–1, pH = 7.03) and MnL3 (cMnL = 3.72 mmol·kg^–1, pH = 7.2) were performed on a Bruker Avance III 400 MHz spectrometer (9.4 T, 54.2 MHz) in the temperature range 5–75 °C. The temperature was calculated after calibration with ethylene glycol and […]. Acidified water (HClO4, pH = 3.3) was used as a diamagnetic reference. The ^17O transverse relaxation times (T2) were obtained by using the CPMG spin–echo technique. To eliminate susceptibility contributions to the chemical shift, the sample was in a glass sphere placed in a 10 mm NMR tube. To improve the sensitivity, ^17O-enriched water (11.10% H2^17O, Cortecnet) was added to the solution to yield approximately 1% ^17O enrichment.
The ^17O NMR and NMRD data have been analyzed according to the Solomon–Bloembergen–Morgan theory of paramagnetic relaxation.[3] The least-squares fit was performed using Visualizeur/Optimiseur running on a MATLAB 8.3.0 (R2014a) platform.
^1H NMRD profiles were recorded at 25 and 37 °C in the magnetic field range 0.01–80 MHz (Figure 6, bottom). The reduced transverse ^17O relaxation rates were simultaneously fitted with ^1H NMRD data according to the Solomon–Bloembergen–Morgan theory (equations are given in SI). The fitted parameters are summarized in Table 6 and compared to those for seven-coordinate Mn(II) complexes of L1 and 15-pyN3O2 ligands, as well as of [Mn(H2O)6]^2+.
The shape of the ^1H NMRD curves reflects typical low-molecular-weight complexes. The profiles display one dispersion between 1 and 10 MHz as has been previously described for other complexes except [Mn(H2O)6]^2+.[49],[50] The hydration number of MnL2 and MnL3 was assumed in both cases to be q = 1 for a total coordination number of CN = 7, based on the X-ray crystal structure. In aqueous solution, the chloride or the acetonitrile that coordinates to Mn(II) in the solid state will be replaced by one water molecule to complete the coordination sphere of Mn(II). As it was described by Gale et al.,[51] the ^17O T2 values can also give an estimate of hydration number, provided the 1/T2r vs temperature curve has a maximum. This approach is not applicable for MnL2 and MnL3 since both systems are in the slow exchange regime in the entire temperature range studied. The lack of a fast exchange regime prevents the fit of the scalar coupling constant, A0/ℏ, as well which was therefore fixed to 38.6 MHz.[28]

Row | ErH (activation energy for the rotational motion) [2] [kJ mol^–1] | ΔH^‡ (activation enthalpy for the water exchange) [2] [kJ mol^–1] | ΔS^‡ (activation entropy for the water exchange) [2] | Δ^2 (trace of the square of the transient ZFS tensor) [2] | τrH^298 (rotational correlation time) [2] [ps] | τv^298 (correlation time for modulation of ZFS) [2] [ps] | Structure (SMILES) | relaxivity (constant between pH 7 and 11) ([1]; 1.41 T and 25 °C, pH 7 to 11) [mM^–1 s^–1] | r1 (relaxivity) ([1]; 25 °C) [mM^–1 s^–1] | r1 (relaxivity) ([1]; 25 °C, listed as [Mn(L2)(H2O)]^+) [mM^–1 s^–1] | r1 (relaxivity) ([1]; 37 °C) [mM^–1 s^–1] | kex^298 (water exchange rate constant) [2] | kex^298 (water exchange rate) [2] | r1 (relaxivity) ([1]; 25 °C, listed as [Mn(L3)(H2O)]^+) [mM^–1 s^–1]
1 | 15.0 ± 0.5 | 28.7 ± 1.36 | –21 ± 5 J mol^–1K^–1 | 164 ± 10 10^18 s^–2 | 35 ± 4 | 8 ± 1 | O.[Mn+2].c1ccc(CN2CCOCCOCCNCc3cccc(n3)C2)nc1 [MnL2] | 2.62 | ~2.5 | 2.49 | 1.98 | 0.46 × 10^7 s^–1 | 0.46 ± 0.02 10^7 s^–1 | –
2 | 15.0 ± 0.5 | 28.5 ± 2.5 | –27 ± 7 J mol^–1K^–1 | 100 ± 10 10^18 s^–2 | 45 ± 2 | 13 ± 3 | O.[Mn+2].c1cc2nc(c1)CN(Cc1nc3ccccc3[nH]1)CCOCCOCCNC2 [MnL3] | – | ~2.5 | – | 2.24 | 0.23 × 10^7 s^–1 | 0.23 ± 0.02 10^7 s^–1 | 2.77
